The results in this text go back to patent publication US20250353864A1, “INDAZOLE CONTAINING MACROCYCLES AND THEIR USE” (BLOSSOMHILL THERAPEUTICS, INC., priority 2022, published 2025).

Molecules are shown by their SMILES.

Assay type in all cases: biochemical
One test concerns the target EGFR L858R mutant (Homo sapiens (Human), UniProt P00533, L858R). The test is described as follows: HotSpot radiometric kinase assay, EGFR L858R mutant. The settings on record: 10 μM ATP. How it is done:
(§1) Biochemical Assays for Inhibition of Wild-Type and Mutant EGFRs
(§2) Briefly, specific kinase/substrate pairs along with required cofactors were prepared in reaction buffer; 20 mM Hepes pH 7.5, 10 mM […], 1 mM EGTA, 0.02% Brij35, 0.02 mg/ml BSA, 0.1 mM Na3VO4, 2 mM DTT, 1% DMSO. Compounds were delivered into the reaction, followed […] later by addition of a mixture of ATP (Sigma, St. Louis MO) and ^33P ATP (Perkin Elmer, Waltham MA) to a final concentration of 10 μM. Reactions were carried out at room temperature for 120 min, followed by spotting of the reactions onto P81 ion exchange filter paper (Whatman Inc., Piscataway, NJ). Unbound phosphate was removed by extensive washing of filters in 0.75% phosphoric acid. […] IC50 values and curve fits were obtained using Prism (GraphPad Software).

The next test deals with EGFR (D770_N771insNPG) (Homo sapiens (Human), UniProt P00533, INS770NPG). The test is described as follows: HotSpot radiometric kinase assay, EGFR (D770_N771insNPG). To be noted: 10 μM ATP, read-out: EGFR (Δ770_N771insNPG) IC50. The method, then:
as §1, §2

The target in another test is EGFR WT (Homo sapiens (Human), UniProt P00533). The test is described as follows: HotSpot radiometric kinase assay (Reaction Biology), EGFR WT. The settings on record: 10 μM ATP. How it is done: as §1, §2
Chain of EGFR WT (P00533 25-1210): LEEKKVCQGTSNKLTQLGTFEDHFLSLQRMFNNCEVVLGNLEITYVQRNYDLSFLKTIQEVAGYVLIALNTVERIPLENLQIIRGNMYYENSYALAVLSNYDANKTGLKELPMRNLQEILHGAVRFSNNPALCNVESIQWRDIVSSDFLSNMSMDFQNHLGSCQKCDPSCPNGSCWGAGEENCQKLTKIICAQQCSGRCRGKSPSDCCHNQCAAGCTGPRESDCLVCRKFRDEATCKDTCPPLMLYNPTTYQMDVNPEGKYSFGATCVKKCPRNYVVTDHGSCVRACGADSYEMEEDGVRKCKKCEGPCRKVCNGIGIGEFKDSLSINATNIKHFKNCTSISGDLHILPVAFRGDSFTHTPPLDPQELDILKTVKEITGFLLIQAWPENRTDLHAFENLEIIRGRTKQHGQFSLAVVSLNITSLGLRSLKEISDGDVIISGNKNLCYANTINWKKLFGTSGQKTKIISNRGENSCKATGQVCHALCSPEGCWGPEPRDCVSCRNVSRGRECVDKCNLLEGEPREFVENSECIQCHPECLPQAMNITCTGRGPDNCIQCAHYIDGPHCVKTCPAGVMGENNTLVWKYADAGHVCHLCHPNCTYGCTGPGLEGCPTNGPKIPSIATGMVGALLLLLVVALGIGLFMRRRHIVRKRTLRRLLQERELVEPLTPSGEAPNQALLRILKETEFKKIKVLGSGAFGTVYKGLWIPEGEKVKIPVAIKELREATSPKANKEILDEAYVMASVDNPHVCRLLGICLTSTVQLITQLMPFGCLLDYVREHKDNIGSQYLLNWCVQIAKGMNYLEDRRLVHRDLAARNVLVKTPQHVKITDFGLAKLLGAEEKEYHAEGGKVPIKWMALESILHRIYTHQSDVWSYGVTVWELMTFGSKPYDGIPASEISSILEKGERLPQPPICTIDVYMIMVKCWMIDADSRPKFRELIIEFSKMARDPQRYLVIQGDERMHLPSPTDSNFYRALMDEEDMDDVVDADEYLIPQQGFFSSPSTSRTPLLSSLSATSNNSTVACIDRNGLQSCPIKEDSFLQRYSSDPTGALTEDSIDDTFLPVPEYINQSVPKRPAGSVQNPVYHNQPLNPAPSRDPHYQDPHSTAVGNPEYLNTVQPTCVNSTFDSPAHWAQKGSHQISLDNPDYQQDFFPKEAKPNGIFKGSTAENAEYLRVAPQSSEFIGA
The next test concerns the target EGFR Δ746-750 mutant (Homo sapiens (Human), UniProt P00533, DEL746-750). The test is described as follows: HotSpot radiometric kinase assay, EGFR Δ746-750 mutant. To be noted: 10 μM ATP. The method, then: as §1, §2
The target of another test is EGFR L858R/T790M mutant (Homo sapiens (Human), UniProt P00533, L858R/T790M). The test is described as follows: HotSpot radiometric kinase assay, EGFR L858R/T790M mutant. The settings on record: 10 μM ATP. The method, then:
as §1, §2

Test [1] has as its target EGFR L858R/T790M/C797S mutant (Homo sapiens (Human), UniProt P00533, C797S/L858R/T790M). The test is described as follows: HotSpot radiometric kinase assay, EGFR L858R/T790M/C797S mutant. The settings on record: 10 μM ATP. The method, then: as §1, §2
In test [2] the target is EGFR Δ746-750/C797S mutant (Homo sapiens (Human), UniProt P00533, C797S/DEL746-750). The test is described as follows: HotSpot radiometric kinase assay, EGFR Δ746-750/C797S mutant. The settings on record: 10 μM ATP. How it is done: as §1, §2
Chain of EGFR Δ746-750/C797S mutant (P00533 other isoform, or with tags, fused parts or gaps C797S/del 1-668/del 746-750 limits assumed): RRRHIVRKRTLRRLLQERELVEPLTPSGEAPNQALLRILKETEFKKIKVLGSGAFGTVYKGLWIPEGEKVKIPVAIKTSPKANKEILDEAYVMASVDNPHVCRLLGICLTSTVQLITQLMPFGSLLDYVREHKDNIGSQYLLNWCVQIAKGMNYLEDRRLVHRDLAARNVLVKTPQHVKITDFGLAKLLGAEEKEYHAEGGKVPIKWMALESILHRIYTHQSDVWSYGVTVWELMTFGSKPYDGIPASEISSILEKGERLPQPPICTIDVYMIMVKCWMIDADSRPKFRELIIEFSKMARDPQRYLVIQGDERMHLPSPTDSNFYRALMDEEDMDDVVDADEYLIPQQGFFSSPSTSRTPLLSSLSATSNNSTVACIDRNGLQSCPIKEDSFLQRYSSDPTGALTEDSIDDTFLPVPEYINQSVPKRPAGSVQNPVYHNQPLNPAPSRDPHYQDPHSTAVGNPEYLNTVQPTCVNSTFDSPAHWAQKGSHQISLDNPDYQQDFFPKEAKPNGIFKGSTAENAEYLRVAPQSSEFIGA

Chain of EGFR (D770_N771insNPG) (P00533 other isoform, or with tags, fused parts or gaps del 1-668/ins NPG behind 770 limits assumed): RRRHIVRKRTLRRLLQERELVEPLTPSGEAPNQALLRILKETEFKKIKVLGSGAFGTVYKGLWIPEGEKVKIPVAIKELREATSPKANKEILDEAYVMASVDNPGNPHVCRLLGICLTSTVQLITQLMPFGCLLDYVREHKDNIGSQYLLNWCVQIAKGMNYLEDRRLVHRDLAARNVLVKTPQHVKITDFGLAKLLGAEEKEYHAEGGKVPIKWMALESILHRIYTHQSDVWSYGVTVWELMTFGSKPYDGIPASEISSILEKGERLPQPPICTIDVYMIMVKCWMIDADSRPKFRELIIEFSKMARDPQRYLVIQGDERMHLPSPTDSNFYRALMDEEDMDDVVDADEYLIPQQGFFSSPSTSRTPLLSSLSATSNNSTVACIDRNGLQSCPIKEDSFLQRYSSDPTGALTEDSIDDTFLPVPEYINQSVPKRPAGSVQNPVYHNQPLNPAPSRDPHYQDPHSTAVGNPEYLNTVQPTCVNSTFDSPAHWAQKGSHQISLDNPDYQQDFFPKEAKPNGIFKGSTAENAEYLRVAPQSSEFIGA
Chain of EGFR L858R/T790M mutant (P00533 25-1210 T790M/L858R): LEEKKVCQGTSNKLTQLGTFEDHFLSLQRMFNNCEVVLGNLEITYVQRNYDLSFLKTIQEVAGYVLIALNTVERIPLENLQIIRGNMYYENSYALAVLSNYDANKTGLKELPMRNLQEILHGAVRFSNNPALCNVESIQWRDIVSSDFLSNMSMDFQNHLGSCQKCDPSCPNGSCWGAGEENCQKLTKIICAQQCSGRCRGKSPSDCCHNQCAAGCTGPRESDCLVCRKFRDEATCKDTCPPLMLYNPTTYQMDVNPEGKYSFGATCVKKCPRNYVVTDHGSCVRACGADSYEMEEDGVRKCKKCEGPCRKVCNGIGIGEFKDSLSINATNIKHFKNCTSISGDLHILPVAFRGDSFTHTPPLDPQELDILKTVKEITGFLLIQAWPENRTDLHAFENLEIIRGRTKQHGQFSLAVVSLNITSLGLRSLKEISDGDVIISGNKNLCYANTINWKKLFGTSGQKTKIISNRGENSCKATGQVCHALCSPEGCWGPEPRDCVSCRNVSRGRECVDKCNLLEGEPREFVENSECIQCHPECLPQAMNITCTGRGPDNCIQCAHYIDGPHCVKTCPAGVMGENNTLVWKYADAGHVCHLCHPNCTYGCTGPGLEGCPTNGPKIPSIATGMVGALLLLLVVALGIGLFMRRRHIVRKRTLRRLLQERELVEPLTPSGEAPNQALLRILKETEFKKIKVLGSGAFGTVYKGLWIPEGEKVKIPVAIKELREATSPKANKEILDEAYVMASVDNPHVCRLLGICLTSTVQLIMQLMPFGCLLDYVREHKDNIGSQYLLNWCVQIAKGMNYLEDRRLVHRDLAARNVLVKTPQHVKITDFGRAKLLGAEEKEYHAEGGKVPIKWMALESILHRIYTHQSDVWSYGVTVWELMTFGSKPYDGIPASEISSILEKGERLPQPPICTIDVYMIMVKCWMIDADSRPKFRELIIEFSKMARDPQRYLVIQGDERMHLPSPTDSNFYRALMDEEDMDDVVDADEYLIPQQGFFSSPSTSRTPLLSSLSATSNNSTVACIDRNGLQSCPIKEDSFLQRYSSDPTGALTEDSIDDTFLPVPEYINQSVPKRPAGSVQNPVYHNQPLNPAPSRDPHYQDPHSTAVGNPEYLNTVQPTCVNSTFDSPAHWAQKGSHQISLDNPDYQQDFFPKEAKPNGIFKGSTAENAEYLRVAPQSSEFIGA
Chain of EGFR L858R mutant (P00533 25-1210 L858R): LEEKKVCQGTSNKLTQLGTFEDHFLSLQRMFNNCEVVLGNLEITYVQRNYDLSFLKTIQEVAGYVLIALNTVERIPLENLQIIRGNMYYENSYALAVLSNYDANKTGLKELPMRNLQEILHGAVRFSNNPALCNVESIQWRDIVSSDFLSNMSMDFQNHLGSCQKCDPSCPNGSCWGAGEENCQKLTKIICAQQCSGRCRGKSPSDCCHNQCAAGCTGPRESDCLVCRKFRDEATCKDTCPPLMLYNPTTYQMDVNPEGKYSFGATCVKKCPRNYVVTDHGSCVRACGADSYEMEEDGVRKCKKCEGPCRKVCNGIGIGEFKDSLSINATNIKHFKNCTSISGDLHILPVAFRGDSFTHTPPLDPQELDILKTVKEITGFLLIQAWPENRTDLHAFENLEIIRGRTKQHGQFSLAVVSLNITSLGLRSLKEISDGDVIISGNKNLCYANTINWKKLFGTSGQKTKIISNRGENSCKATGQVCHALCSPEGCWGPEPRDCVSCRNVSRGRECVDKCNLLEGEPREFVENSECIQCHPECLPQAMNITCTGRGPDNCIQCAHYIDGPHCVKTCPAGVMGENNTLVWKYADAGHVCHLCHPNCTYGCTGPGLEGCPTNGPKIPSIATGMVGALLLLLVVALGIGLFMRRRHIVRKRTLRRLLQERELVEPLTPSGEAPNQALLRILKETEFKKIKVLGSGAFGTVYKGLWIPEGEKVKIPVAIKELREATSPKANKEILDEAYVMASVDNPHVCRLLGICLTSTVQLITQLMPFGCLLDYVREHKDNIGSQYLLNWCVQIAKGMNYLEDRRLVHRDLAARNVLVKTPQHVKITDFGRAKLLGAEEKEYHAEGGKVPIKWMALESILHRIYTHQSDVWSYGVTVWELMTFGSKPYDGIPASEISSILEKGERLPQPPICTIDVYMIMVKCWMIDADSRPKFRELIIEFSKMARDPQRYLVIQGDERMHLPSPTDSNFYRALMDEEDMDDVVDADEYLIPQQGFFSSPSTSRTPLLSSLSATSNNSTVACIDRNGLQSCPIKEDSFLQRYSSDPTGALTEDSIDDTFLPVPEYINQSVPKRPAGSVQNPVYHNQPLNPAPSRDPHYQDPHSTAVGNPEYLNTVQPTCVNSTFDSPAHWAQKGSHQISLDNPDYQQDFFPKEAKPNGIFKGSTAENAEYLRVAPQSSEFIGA

On to `COC(C)(C)c1ccc2c(c1)O[C@@H]1CCN(CCOc3c(cnn3C)-c3ccc4[nH]nc(c4c3)/C=C/2)C1=O` [Example 115, (10R,16E)-13-(2-methoxypropan-2-yl)-3-methyl-3,5,6,9,10,19-hexahydro-8H-20,22-etheno-7,10-methanodipyrazolo[3,4-i:4′,3′-m][1,8,5]benzodioxazacyclooctadecin-25-one], for which the IC50 against EGFR L858R mutant came to 37.3 nM; on EGFR (D770_N771insNPG), 32.3 nM; on EGFR WT, 147 nM; at EGFR Δ746-750 mutant it was 12.9 nM; against EGFR L858R/T790M mutant, 1.6 nM; in test [1] it was 14 nM. The compound also showed an IC50 in test [2] of 60.1 nM.
In the case of `Cn1ncc2c1OCCCOc1nn3ccn(C)c(=O)c3c1/C=C/c1n[nH]c3ccc-2cc13` [Example 91, (20E)-8,18-dimethyl-2,8,11,12-tetrahydro-10H-3,5-ethenodipyrazolo[3″,4″:10′,11′;4′″,3′″:14′,15′][1,5]dioxacyclopentadecino[6′,7′:3,4]pyrazolo[1,5-a]pyrazin-19(18H)-one], the IC50 against EGFR L858R mutant was greater than 1000 nM; on EGFR (D770_N771insNPG) it was greater than 1000 nM; against EGFR WT, greater than 1000 nM; against EGFR Δ746-750 mutant, greater than 1000 nM; on EGFR L858R/T790M mutant, 400 nM; in test [1], greater than 1000 nM. The IC50 in test [2] was greater than 1000 nM.
Take `Cc1c2c(nn1C[C@@H](C)O)CN(C)C[C@H](C)Oc1c(cnn1C)-c1ccc3[nH]nc(c3c1)/C=C/2` [Example 128, (2R)-1-[(10S,17E)-8,10,12,16-tetramethyl-2,8,10,11,12,13-hexahydro-15H-3,5-ethenotripyrazolo[3,4-f:3′,4′-j:4″,3″-n][1,4]oxazacyclopentadecin-15-yl]propan-2-ol]: the IC50 against EGFR L858R mutant came out at 21.9 nM; at EGFR (D770_N771insNPG), 383 nM; on EGFR WT, 264 nM; against EGFR Δ746-750 mutant it was 33.7 nM; at EGFR L858R/T790M mutant it was 0.77 nM; in test [1], 1.01 nM. The compound also registered an IC50 in test [2] of 15.2 nM.
Consider `CCOc1nn(CCO)c2c1/C=C/c1n[nH]c3ccc(cc13)-c1cnn(C)c1O[C@H]1CN(C)C[C@@H]1N(C)C2` (single isomer, unassigned) [Ex. 270], for which the IC50 against EGFR L858R mutant is 161 nM; at EGFR (D770_N771insNPG), 635 nM; at EGFR WT, 543 nM; against EGFR Δ746-750 mutant it was 93.6 nM; at EGFR L858R/T790M mutant it was 4.58 nM; in test [1], 1.1 nM. This compound registered an IC50 in test [2] of 20.5 nM.
In the case of `CCN1CCOc2c(c(C)nn2C)/C=C/c2n[nH]c3ccc(cc23)-c2cnn(C)c2C1` [Example 111, (17E)-10-ethyl-8,14,16-trimethyl-2,9,10,11,12,14-hexahydro-8H-3,5-ethenotripyrazolo[3,4-f:4′,3′-j:4″,3″-n][1,4]oxazacyclopentadecine], the IC50 on EGFR L858R mutant was 8.04 nM; at EGFR (D770_N771insNPG) it was 16.8 nM; against EGFR WT it was 63.3 nM; on EGFR Δ746-750 mutant, 3.29 nM; against EGFR L858R/T790M mutant it was 0.39 nM; in test [1] it was 1.91 nM. The compound further registered an IC50 in test [2] of 9.18 nM.
On to `Cc1c2c(nn1C1CCN(C)C1)OCCN(C)Cc1c(cnn1C)-c1ccc3[nH]nc(c3c1)/C=C/2` (centres unmarked) [Example 117, (17E)-8,10,16-trimethyl-14-(1-methylpyrrolidin-3-yl)-2,9,10,11,12,14-hexahydro-8H-3,5-ethenotripyrazolo[3,4-f:4′,3′-j:4″,3″-n][1,4]oxazacyclopentadecine], for which the IC50 against EGFR L858R mutant was 20 nM; at EGFR (D770_N771insNPG) it was 53.5 nM; against EGFR WT, 70.1 nM; on EGFR Δ746-750 mutant, 6.91 nM; on EGFR L858R/T790M mutant it was 2.2 nM; in test [1], 6.18 nM. Moreover, in test [2], the IC50 came to 8.36 nM.
Turning to `Cc1nn([C@H]2CN(C)C[C@@H]2O)c2c1/C=C/c1n[nH]c3ccc(cc13)-c1cnn(C)c1CN(C)CCO2` (racemic) [Example 98, (rac)-(3S,4S)-1-methyl-4-[(17E)-8,10,16-trimethyl-2,8,9,10,11,12-hexahydro-14H-3,5-ethenotripyrazolo[3,4-f:4′,3′-j:4″,3″-n][1,4]oxazacyclopentadecin-14-yl]pyrrolidin-3-ol], the IC50 was found to be 41.1 nM at EGFR L858R mutant; 148 nM at EGFR (D770_N771insNPG); 119 nM against EGFR WT; 84.9 nM against EGFR Δ746-750 mutant; 3.56 nM at EGFR L858R/T790M mutant; 12.1 nM in test [1]. The same compound displayed an IC50 in test [2] of 27 nM.
For the compound `CCOc1nn(CCO)c2c1/C=C/c1n[nH]c3ccc(cc13)-c1c(C)nn(C)c1OC[C@H](C)N(C1CC1)C2` [Example 205, 2-[(11S,17E)-12-cyclopropyl-16-ethoxy-6,8,11-trimethyl-2,8,10,11,12,13-hexahydro-14H-3,5-ethenotripyrazolo[3,4-f:3′,4′-j:4″,3″- n][1,4]oxazacyclopentadecin-14-yl]ethan-1-ol], the IC50 was 16.3 nM against EGFR L858R mutant; 137 nM on EGFR (D770_N771insNPG); 58.3 nM against EGFR WT; 5.17 nM at EGFR Δ746-750 mutant; 1 nM at EGFR L858R/T790M mutant; 1.13 nM in test [1]. It took 1.42 nM to reach half-maximal inhibition in test [2] (IC50).
As for `Cc1nn(C)c2c1/C=C/c1n[nH]c3ccc(cc13)-c1cnn(C)c1O[C@@H](C)CN(C1COC1)C2` [Example 140, (10S,17E)-8,10,14,16-tetramethyl-12-(oxetan-3-yl)-2,10,11,12,13,14-hexahydro-8H-3,5-ethenotripyrazolo[3,4-f:3′,4′-j:4″,3″-n][1,4]oxazacyclopentadecine], the IC50 came out at 11.6 nM against EGFR L858R mutant; 186 nM at EGFR (D770_N771insNPG); 84.8 nM against EGFR WT; 9.35 nM at EGFR Δ746-750 mutant; 1.19 nM on EGFR L858R/T790M mutant; 1.3 nM in test [1]. The same compound gave an IC50 in test [2] of 6.14 nM.
On to `Cc1nn([C@@H]2COC[C@H]2O)c2c1/C=C/c1n[nH]c3ccc(cc13)-c1cnn(C)c1OCCCO2` (single isomer, unassigned) [Example 77], for which the IC50 is 2080 nM against EGFR L858R mutant; 1880 nM on EGFR (D770_N771insNPG); greater than 1000 nM against EGFR WT; 749 nM on EGFR Δ746-750 mutant; 427 nM against EGFR L858R/T790M mutant; 453 nM in test [1]. The compound further registered a half-inhibitory concentration (IC50) in test [2] of 803 nM.
On to `C[C@H]1CN(C)Cc2c(c(OC3CCNCC3)nn2C)/C=C/c2n[nH]c3ccc(cc23)-c2cnn(C)c2O1` [Example 136, (10S,17E)-8,10,12,14-tetramethyl-16-[(piperidin-4-yl)oxy]-2,10,11,12,13,14-hexahydro-8H-3,5-ethenotripyrazolo[3,4-f:3′,4′-j:4″,3″-n][1,4]oxazacyclopentadecine], for which the IC50 on EGFR L858R mutant is 14.6 nM; on EGFR (D770_N771insNPG), 334 nM; against EGFR WT, 103 nM; on EGFR Δ746-750 mutant it was 15.2 nM; against EGFR L858R/T790M mutant, 0.8 nM; in test [1] it was 1.54 nM. In addition, the IC50 in test [2] worked out at 12.1 nM.
Take `C[C@H]1CN(C)Cc2c(c(OC3CN(S(C)(=O)=O)C3)nn2C)/C=C/c2n[nH]c3ccc(cc23)-c2cnn(C)c2O1` [Example 150, (10S,17E)-16-{[1-(methanesulfonyl)azetidin-3-yl]oxy}-8,10,12,14-tetramethyl-2,10,11,12,13,14-hexahydro-8H-3,5-ethenotripyrazolo[3,4-f:3′,4′-j:4″,3″-n][1,4]oxazacyclopentadecine]: the IC50 on EGFR L858R mutant was found to be 2.31 nM; on EGFR (D770_N771insNPG), 33.4 nM; against EGFR WT, 6.36 nM; on EGFR Δ746-750 mutant, 3.21 nM; against EGFR L858R/T790M mutant, 0.45 nM; in test [1] it was 0.37 nM. In test [2], this compound displayed an IC50 of 2.58 nM.
For the compound `Cc1c2c(nn1CCO)CN(C)C[C@H](C)Oc1c(cnn1C)-c1ccc3[nH]nc(c3c1)/C=C/2` [Example 60, 2-[(10S,17E)-8,10,12,16-tetramethyl-2,8,10,11,12,13-hexahydro-15H-3,5-ethenotripyrazolo[3,4-f:3′,4′-j:4″,3″- n][1,4]oxazacyclopentadecin-15-yl]ethan-1-ol], the IC50 against EGFR L858R mutant is 101 nM; at EGFR (D770_N771insNPG), 678 nM; against EGFR WT it was 581 nM; at EGFR Δ746-750 mutant it was 89.7 nM; against EGFR L858R/T790M mutant it was 6.86 nM; in test [1], 3.27 nM. This compound also registered an IC50 in test [2] of 89.4 nM.
As to `Cc1c2c(nn1CCO)CNC[C@H](C)Oc1c(cnn1C)-c1ccc3[nH]nc(c3c1)/C=C/2` [Example 49, 2-[(10S,17E)-8,10,16-trimethyl-2,8,10,11,12,13-hexahydro-15H-3,5-ethenotripyrazolo[3,4-f:3′,4′-j:4″,3″- n][1,4]oxazacyclopentadecin-15-yl]ethan-1-ol], the IC50 against EGFR L858R mutant is 862 nM; on EGFR (D770_N771insNPG), greater than 1000 nM; against EGFR WT it was greater than 1000 nM; on EGFR Δ746-750 mutant, 617 nM; on EGFR L858R/T790M mutant it was 126 nM; in test [1], 84.4 nM. In test [2], this compound returned an IC50 of 1040 nM.

A word on the IC50: it is the midpoint of a concentration-inhibition curve.
